Laboratory results taken from patent US20210267948A1, “TREATMENT OF CANCER” (CITY OF HOPE, priority 2017, published 2021).

Columns and labels:
HCC1937 tumors = assay: Orthotopic tumor model, HCC1937; format: in vivo, mouse; conditions: HCC1937 in mammary fat pads, NSG mice, daily oral 400 mg/kg, 28 days
Procedure: (§1) Orthotopic Tumor Model. Experiments in mice were conducted under a protocol approved by the IACUC of City of Hope. Because HCC1937 and HCC1937+BRCA1 cells form slow-growing tumors, they were implanted using MATRIGEL™ (Becton-Dickinson Biosciences). To establish tumors, 4×10^6 cells in 200 μL serum-free medium containing 50% MATRIGEL™ were injected into the mammary fat pads around the inguinal area of a pair of 8 week old female NSG mice. Once the initial tumors reached 13 mm in diameter, they were dissected out, minced into 3 mm pieces and implanted into the inguinal area of the mammary fat pads of the experimental mice. Tumors were measured over a 28-day period, and for each time point, the student t-test was used to determine the statistical significance between daily gavage with 400 mg/kg COH29 in 30% solutol and corresponding vehicle control. Thep value less than 0.05 (2 sides) was considered to indicate statistical significance

HCC1937+BRCA1 tumors = assay: Orthotopic tumor model, HCC1937+BRCA1; format: in vivo, mouse; conditions: HCC1937+BRCA1 in mammary fat pads, NSG mice, daily oral 400 mg/kg, 28 days
Procedure: as §1

PARP1 = biological target: T1, PARP1 (Homo sapiens, UniProt P09874); assay: PARP1 Chemiluminescent Assay on lysates of treated cells; format: cell-based
T1 construct: endogenous in cells; host or cells: HCC1937, HCC1937+BRCA1, UWB1.289 and UWB1.289+BRCA1 human cancer cells (lysates)
Procedure: (§2) The PARP1 activity was determined using the PARP1 Chemiluminescent Assay Kit (BPS Bioscience, San Diego) according to the manufacturer's protocol. Briefly, the ribosylation reaction was carried out with activated DNA in PARP assay buffer using test inhibitor, positive control, substrate control and blank reactions, for 1 hour at 25° C. Detection was by streptavidin-HRP with chemiluminescent substrate A and B read in a luminometer. NZebrafish (Danio rerio) were obtained from zebrafish Core facility of Taipei Medical University and maintained at 28° C. on a 14 h light/10 h dark cycle. Embryos were incubated at 28° C. and different developmental stages were determined as described (25). Wild-type embryos were treated with different concentrations of HU (0, 5, 10, 20, 50 mM) or COH29 (0, 10, 20, 50, 100 μM) at 20 hpf to evaluate the mutagenic effect. Fifteen embryos were treated per well condition. […] Embryos were observed using an Olympus IX70-FLA inverted fluorescence microscope. Images were taken using SPOT digital camera system (Diagnostic Instruments, Sterling Heights, Mich., USA) and assembled with Image) software (26).
To determine if COH29 inhibited hPARP1, PARP1 activity was examined in lysates of cells treated with or without COH29 for 4 h, 8 h or 24 h.

[1] = tested on: wild-type zebrafish embryos; assay: Zebrafish genotoxicity assay; format: in vivo, Danio rerio; conditions: embryos treated 1 to 7 dpf, COH29 0-100 μM
Procedure: as §2
To assess the genotoxicity of COH29, wild-type zebrafish embryos were treated from 1 to 7 dpf (day post-fertilization) with a range of doses of COH29 (0-100 μM) and compared to embryos similarly treated with HU (0-50 mM) which is known to cause developmental defects.

A549 cells = assay: DDR proteins in A549 cells (Western blot, immunofluorescence); format: cell-based, human
Procedure: Immunofluorescence experiments were conducted as described previously (21,22). Specifically, A549 cells were grown on glass coverslips. After treatment with COH29 (1 or 10 μM) for 24 or 48 hours, cells were fixed with 4% paraformaldehyde for 10 min and permeabilized with TRITON™ X-100 (0.5%). The coverslips were washed with phosphate-buffered saline (PBS) and blocked with PBS-containing 2% bovine serum albumin (BSA), incubated with an Ab specific to FOXO3 or ATM-pS1981 or γ-H2AX or p53-pS15 (1:50-1:200 dilution), followed by Alexa 488-conjugated anti-rabbit or anti-mouse (1:200), Alexa 594-conjugated anti-goat (1:100) secondary Abs (Molecular Probes). Cells were incubated with 4′,6-diamidino-2-phenylindole (DAPI; Sigma) to stain the nuclei. Specific staining was visualized and images were captured with a Leica SP2 AOBS confocal laser scanning microscope. To measure foci-positive cells, ˜300 cells were used randomly captured by confocal microscopy. The percentages of considering foci-positive cells were calculated from cells containing at least five foci. Each error bar presented is the mean of standard deviation.
For subcellular fractionation, cells were trypsinized and washed with cold PBS solution twice. After centrifugation at 1,200 g for 5 min, cells were incubated in buffer (50 mM HEPES, pH 7.5, 150 mM NaCl, 1 mM EDTA) containing 0.2% NONIDET™ P-40 (NP-40), supplemented with protease inhibitors (5 μg/ml each of pepstatin, leupeptin, and aprotinin) and phosphatase inhibitors on ice for 5 min. Following centrifugation at 1,000 g for 5 min, the supernatant was collected (i.e., cytoplasmic fraction) and pellets were washed with the same buffer twice. The washed samples were extracted for 40 min on ice with fractionation buffer containing 0.5% NP-40 for nuclear fraction. […] Protein concentrations of all fractions were determined with Bio-Rad Protein Assay (Bio-Rad Laboratories, Hercules, Calif.). […] The immunoblots were visualized on film with the West-Q chemi-luminescence kit (GenDEPOT, Barker, Tex.).

EJ5 cells (NHEJ pathway) = assay: NHEJ repair GFP reporter (EJ5-GFP); format: cell-based; conditions: 24 h
Procedure: The EJ2 cells were generated to evaluate Alt-NHEJ through monitoring the fluorescence intensity of GFP, and EJ5 cells were used to determine NJEJ, as described previously (23). Cells were seeded into 6-well plate and treated with COH29 or cisplatin at different concentration for 24 hours. The cells were then trypsinized, washed, and analyzed by flow cytometry.

[2] = HCC1937 lacking BRCA1, 24 h incubation
[3] = UWB1.289 lacking BRCA1, 8 h treatment

T1 sequence (P09874 whole entry): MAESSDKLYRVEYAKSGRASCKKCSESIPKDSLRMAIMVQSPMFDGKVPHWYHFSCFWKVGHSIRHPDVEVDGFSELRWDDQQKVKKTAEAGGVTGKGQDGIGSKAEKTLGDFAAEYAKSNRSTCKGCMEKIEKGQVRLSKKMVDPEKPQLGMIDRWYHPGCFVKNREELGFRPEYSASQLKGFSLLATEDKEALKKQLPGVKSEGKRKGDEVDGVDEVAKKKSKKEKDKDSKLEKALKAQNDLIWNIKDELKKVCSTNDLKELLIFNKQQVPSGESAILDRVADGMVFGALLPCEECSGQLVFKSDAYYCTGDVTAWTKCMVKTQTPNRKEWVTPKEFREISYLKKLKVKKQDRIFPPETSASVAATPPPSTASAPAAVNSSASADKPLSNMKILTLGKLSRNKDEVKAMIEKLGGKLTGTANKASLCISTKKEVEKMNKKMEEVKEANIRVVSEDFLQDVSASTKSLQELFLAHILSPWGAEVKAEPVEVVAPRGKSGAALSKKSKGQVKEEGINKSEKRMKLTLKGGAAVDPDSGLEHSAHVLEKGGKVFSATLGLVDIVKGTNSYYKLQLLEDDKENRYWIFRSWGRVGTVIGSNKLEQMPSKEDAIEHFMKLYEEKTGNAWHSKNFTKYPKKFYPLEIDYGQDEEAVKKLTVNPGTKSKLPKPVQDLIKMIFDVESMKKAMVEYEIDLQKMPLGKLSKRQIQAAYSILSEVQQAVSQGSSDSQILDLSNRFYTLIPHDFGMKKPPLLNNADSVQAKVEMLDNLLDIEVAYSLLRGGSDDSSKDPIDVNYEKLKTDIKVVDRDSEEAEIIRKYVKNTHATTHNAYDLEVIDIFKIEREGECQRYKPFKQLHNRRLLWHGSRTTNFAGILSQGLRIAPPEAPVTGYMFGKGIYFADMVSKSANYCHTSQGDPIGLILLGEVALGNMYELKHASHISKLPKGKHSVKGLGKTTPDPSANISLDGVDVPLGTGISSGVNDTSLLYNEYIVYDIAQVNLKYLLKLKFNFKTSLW

O=C(Nc1nc(-c2ccc(O)c(O)c2)c(-c2ccccc2)s1)c1ccc(O)c(O)c1 [COH29, N-(4-(3,4-dihydroxyphenyl)-5-phenylthiazol-2-yl)-3,4-dihydroxybenzamide]
growth of tumors vs vehicle (HCC1937 tumors): significantly (p=0.0007) suppressed
tumor size vs vehicle controls (HCC1937+BRCA1 tumors): not significantly smaller
PARP1 activity decreased by (PARP1; HCC1937+BRCA1, 24 h incubation): 12.66%
PARP1 activity, COH29 treated (PARP1; HCC1937+BRCA1, 24 h incubation): 2041097 cps
PARP1 activity decreased by (PARP1; [2]): 41.08%
PARP1 activity, COH29 treated (PARP1; [2]): 427851 cps
PARP1 activity rose by (PARP1; UWB1.289+BRCA1, 8 h treatment): 46.31%
PARP1 activity, COH29 treated (PARP1; UWB1.289+BRCA1, 8 h treatment): 2129944 cps
PARP1 activity decreased by (PARP1; [3]): 31.79%
PARP1 activity, COH29 treated (PARP1; [3]): 774611 cps
viability of embryos [1]: no developmental defects (FIG. 5C) or decrease in viability
developmental defects ([1]; HU 0-50 mM): no developmental defects
protein level of BRCA1 and Rad51 foci formation (A549 cells; A549, 24 h): suppressed
γ-H2AX, phospho-p53 and phospho-ATM in the nucleus (A549 cells; A549, BRCA1 wild-type, 48 h): induced accumulation
Rad51 expression in the nucleus (A549 cells; A549, BRCA1 wild-type, Western analysis): downregulated
NHEJ repair efficiency (EJ5 cells (NHEJ pathway)): little effect
